Consider 16 compounds from patent US20150087627A1, “COMBINATION OF KINASE INHIBITORS AND USES THEREOF” (Intellikine LLC, priority 2011, published 2015).

Common to all, as to format: biochemical
Assay [1] has as its target T1, PI3K δ (Homo sapiens, UniProt O00329).
T1 construct: purchased Upstate / Millipore Corporation
In words: PI 3-Kinase (human) HTRF assay, PI3K δ. The settings on record: read-out: PI3K δ IC50. For orientation: TR-FRET usually uses a lanthanide donor and a delayed reading to cut background.

Assay [2] deals with T2, PI3K α (p110α/p85α) (Homo sapiens, UniProt P42336).
T2 construct: purchased Upstate / Millipore Corporation
As to the kind of experiment: PI 3-Kinase (human) HTRF assay, PI3K α. As to conditions: read-out: PI3K α IC50.
Description: Briefly, the assay is a time resolved FRET assay that indirectly measures PIP3 product formed by the activity of a PI3-K. The kinase reaction is performed in a microtiter plate (e.g., a 384 well microtiter plate). The total reaction volume is approximately 20 ul per well. In the first step, each well receives 2 ul of test compound in 20% dimethylsulphoxide resulting in a 2% DMSO final concentration. […] The plate is sealed and incubated for 15 minutes at room temperature. […] The plate is sealed and incubated for 1 hour at room temperature. The reaction is stopped by adding 5 ul of Stop Solution per well and then 5 ul of Detection Mix is added per well. The plate is sealed, incubated for 1 hour at room temperature, and then read on an appropriate plate reader. Data is analyzed and IC50s are generated using GraphPad Prism 5.

Assay [3] addresses T3, PI3K γ (p110γ) (Homo sapiens, UniProt P48736).
T3 construct: purchased Upstate / Millipore Corporation
In words: PI 3-Kinase (human) HTRF assay, PI3K γ. The settings on record: read-out: PI3K γ IC50.

The target in assay [4] is T4, PI3K β (p110β/p85α) (Homo sapiens, UniProt P42338).
T4 construct: purchased Upstate / Millipore Corporation
In words: PI 3-Kinase (human) HTRF assay, PI3K β. The settings on record: read-out: PI3K β IC50.

SMILES strings stand for the structures.

T1 sequence (O00329 whole entry): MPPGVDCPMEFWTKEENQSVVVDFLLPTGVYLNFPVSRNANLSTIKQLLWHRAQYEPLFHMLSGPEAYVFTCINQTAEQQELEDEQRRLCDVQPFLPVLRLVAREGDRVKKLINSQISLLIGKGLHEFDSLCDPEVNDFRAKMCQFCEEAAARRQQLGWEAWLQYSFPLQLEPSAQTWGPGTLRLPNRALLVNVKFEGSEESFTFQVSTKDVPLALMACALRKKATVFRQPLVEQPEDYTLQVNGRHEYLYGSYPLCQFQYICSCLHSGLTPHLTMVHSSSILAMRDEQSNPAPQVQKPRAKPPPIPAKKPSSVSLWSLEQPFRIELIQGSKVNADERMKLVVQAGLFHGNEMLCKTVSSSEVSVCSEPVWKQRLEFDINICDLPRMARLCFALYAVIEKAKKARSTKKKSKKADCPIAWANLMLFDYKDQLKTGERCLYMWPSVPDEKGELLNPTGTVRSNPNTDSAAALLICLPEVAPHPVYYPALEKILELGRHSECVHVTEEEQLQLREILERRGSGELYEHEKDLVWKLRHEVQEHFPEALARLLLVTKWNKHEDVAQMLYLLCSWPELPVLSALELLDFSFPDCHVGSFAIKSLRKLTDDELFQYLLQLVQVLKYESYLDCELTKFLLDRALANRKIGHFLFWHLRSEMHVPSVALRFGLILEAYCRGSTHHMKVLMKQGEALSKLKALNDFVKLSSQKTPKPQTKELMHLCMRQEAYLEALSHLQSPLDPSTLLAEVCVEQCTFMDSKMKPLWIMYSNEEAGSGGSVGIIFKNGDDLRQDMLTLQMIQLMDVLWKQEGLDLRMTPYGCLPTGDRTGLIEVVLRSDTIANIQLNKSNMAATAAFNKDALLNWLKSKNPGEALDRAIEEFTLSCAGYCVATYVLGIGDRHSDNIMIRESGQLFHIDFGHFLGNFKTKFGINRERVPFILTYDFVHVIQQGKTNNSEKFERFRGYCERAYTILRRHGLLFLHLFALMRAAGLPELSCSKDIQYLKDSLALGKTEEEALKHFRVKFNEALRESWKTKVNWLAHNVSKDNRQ
T1 sequence (P27986 whole entry partner): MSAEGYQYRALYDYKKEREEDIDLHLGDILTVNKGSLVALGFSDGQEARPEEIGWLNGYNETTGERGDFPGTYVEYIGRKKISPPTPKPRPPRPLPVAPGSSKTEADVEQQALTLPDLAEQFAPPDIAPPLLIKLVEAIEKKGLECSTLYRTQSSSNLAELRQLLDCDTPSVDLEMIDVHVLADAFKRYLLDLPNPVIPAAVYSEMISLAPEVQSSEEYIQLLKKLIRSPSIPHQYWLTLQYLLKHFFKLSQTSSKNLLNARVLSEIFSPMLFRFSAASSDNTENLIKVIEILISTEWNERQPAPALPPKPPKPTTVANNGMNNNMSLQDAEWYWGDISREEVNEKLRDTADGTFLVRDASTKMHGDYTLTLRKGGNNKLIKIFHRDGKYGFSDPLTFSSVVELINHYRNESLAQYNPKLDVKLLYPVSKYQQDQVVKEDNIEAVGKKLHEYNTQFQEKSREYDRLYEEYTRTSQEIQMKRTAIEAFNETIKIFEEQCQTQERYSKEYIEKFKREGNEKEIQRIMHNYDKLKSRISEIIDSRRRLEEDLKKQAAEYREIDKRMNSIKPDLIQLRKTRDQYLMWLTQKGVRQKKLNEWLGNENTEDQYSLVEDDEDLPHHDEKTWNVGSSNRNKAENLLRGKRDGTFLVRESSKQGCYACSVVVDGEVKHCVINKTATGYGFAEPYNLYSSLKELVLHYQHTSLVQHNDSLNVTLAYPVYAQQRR
T4 sequence (P42338 whole entry): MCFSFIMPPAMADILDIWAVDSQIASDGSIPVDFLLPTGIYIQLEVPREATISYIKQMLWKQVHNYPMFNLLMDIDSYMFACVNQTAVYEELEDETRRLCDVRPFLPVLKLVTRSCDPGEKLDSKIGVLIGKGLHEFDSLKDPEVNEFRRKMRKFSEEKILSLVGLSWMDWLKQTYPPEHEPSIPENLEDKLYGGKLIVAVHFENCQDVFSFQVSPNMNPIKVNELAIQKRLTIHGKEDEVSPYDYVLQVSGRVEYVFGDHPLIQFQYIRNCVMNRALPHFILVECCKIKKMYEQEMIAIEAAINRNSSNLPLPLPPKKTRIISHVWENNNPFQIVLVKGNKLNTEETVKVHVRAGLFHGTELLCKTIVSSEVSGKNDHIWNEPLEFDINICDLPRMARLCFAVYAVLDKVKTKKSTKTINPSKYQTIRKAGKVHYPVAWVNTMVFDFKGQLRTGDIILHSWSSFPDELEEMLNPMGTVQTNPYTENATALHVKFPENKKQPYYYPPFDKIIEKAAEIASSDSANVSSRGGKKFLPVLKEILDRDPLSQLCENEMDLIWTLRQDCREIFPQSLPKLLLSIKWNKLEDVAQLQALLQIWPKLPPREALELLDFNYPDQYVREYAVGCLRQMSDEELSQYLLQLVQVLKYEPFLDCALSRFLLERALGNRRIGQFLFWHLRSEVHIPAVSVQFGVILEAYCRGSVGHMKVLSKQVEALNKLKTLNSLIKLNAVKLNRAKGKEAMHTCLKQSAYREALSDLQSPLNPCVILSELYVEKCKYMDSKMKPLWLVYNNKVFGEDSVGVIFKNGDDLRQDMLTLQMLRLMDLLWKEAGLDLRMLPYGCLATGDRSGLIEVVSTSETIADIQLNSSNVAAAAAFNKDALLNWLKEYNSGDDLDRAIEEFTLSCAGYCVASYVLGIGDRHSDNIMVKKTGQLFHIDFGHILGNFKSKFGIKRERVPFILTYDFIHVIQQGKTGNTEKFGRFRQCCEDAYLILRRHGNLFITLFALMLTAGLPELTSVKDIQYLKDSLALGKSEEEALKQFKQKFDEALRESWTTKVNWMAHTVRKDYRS
T4 sequence (P27986 whole entry partner): as the sequence (P27986 whole entry partner) above
T2 sequence (P42336 whole entry): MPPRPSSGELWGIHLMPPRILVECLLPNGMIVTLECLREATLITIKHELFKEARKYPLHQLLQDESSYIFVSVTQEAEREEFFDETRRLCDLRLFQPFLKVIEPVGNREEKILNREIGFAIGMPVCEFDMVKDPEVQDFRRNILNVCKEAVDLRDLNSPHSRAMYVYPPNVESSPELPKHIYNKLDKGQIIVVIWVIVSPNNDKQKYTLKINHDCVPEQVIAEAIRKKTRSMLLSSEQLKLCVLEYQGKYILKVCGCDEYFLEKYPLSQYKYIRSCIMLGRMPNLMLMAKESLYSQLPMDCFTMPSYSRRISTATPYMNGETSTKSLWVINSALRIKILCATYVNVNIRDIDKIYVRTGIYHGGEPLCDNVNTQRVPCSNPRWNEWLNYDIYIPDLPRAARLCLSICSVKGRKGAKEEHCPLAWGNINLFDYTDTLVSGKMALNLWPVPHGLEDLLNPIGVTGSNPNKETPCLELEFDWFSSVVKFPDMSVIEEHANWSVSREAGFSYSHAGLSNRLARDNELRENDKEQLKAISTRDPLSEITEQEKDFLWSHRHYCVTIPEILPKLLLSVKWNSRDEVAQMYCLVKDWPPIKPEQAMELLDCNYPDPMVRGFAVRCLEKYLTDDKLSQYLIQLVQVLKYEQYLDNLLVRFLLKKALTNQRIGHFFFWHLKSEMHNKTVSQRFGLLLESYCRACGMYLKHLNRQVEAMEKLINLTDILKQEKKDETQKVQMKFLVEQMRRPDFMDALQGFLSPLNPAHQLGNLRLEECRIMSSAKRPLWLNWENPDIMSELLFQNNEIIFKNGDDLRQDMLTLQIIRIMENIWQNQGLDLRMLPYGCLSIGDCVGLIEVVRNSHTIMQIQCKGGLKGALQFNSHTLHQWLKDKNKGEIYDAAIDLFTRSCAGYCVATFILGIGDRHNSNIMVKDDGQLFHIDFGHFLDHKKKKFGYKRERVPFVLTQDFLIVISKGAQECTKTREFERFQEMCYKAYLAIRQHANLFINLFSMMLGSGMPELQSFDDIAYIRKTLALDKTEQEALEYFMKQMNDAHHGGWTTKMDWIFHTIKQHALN
T2 sequence (P27986 whole entry partner): as the sequence (P27986 whole entry partner) above
T3 sequence (P48736 whole entry): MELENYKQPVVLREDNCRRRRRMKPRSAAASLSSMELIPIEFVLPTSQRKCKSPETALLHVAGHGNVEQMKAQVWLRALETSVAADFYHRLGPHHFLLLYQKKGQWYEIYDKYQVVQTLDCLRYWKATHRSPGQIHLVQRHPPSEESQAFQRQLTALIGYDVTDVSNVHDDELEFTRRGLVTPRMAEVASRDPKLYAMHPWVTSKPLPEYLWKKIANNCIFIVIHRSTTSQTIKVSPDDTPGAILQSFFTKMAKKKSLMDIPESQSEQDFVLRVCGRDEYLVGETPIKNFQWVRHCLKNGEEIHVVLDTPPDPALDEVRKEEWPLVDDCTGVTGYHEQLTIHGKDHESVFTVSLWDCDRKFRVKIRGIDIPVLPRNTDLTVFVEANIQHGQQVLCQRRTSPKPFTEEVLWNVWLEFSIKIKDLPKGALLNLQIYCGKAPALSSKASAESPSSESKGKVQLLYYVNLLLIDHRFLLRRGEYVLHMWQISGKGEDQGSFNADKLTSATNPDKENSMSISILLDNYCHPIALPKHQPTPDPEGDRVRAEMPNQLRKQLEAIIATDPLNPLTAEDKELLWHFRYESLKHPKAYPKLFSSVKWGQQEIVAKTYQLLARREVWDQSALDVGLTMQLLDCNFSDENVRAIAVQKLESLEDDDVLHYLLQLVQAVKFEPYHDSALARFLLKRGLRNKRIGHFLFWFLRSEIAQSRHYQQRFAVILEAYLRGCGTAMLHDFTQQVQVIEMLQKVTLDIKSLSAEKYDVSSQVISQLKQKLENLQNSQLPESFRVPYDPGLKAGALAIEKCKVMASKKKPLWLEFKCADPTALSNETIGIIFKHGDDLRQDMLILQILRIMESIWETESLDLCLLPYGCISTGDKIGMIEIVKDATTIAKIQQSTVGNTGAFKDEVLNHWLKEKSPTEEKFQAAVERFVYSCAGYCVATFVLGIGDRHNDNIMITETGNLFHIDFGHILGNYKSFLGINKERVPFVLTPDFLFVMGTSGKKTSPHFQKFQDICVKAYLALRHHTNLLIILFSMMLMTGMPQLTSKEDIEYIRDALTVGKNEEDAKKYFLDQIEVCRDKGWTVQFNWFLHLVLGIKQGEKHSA

For the compound `Nc1nc2cc(-c3ccc4ncc(NC5CCOCC5)nc4c3)ccc2o1` [Compound 96], the 50% inhibitory concentration (IC50) (usually the concentration that inhibits the measured activity by half) in assay [1] is below 1 µM; in assay [2] it was below 100 nM; in assay [3], below 100 nM; in assay [4] it was below 10 µM.

For the compound `Nc1nc2cc(-c3ccc4ncc(C(=O)N5CCOCC5)cc4c3)ccc2o1` [Compound 97], the IC50 in assay [1] is above 10 µM; in assay [2] it was below 10000 nM; in assay [3] it was above 10000 nM; in assay [4] it was above 10 µM.

Take `Nc1nc2cc(-c3ccc4ncc(N5CCS(=O)(=O)CC5)nc4c3)ccc2o1` [Compound 98]: the IC50 in assay [1] was above 10 µM; in assay [2] it was below 100 nM; in assay [3] it was below 100 nM; in assay [4], above 10 µM.

`Nc1nc2cc(-c3ccc4ncc(N5CCC(O)CC5)nc4c3)ccc2o1` [Compound 99]: the IC50 is below 1 µM in assay [1], below 100 nM in assay [2], below 1000 nM in assay [3] and below 10 µM in assay [4].

For `Nc1nc2cc(-c3ccc4ncc(N5CCN(CCO)CC5)nc4c3)ccc2o1` [Compound 100], the IC50 is below 10 µM in assay [1], below 100 nM in assay [2], below 1000 nM in assay [3] and below 0.1 µM in assay [4].

For `CC(C)N1CCC(Nc2ncnc3ccc(-c4ccc5oc(N)nc5c4)cc23)CC1` [Compound 101], the IC50 was below 1 µM in assay [1], below 100 nM in assay [2], below 10000 nM in assay [3] and below 10 µM in assay [4].

With `CC(C)(C#N)c1ccc(Nc2ncnc3ccc(-c4ccc5oc(N)nc5c4)cc23)cc1` [Compound 102], the IC50 in assay [1] is below 1 µM; in assay [2], below 100 nM; in assay [3], below 100 nM; in assay [4], below 1 µM.

For `CN1CCN(C(=O)c2cnc3ccc(-c4ccc5oc(N)nc5c4)nn23)CC1` [Compound 104], the half-maximal inhibitory concentration (IC50) is above 10 µM in assay [1], below 10000 nM in assay [2], below 10000 nM in assay [3] and above 10 µM in assay [4].

On to `Nc1nc2cc(-c3ccc4ncc(C(=O)N5CCOCC5)n4n3)ccc2o1` [Compound 105], for which the IC50 in assay [1] is above 10 µM; in assay [2], below 1000 nM; in assay [3] it was below 1000 nM; in assay [4], below 10 µM.

As to `C[C@@H]1CN(C(=O)c2cnc3ccc(-c4ccc5oc(N)nc5c4)cn23)C[C@H](C)O1` [Compound 106], the IC50 in assay [1] is above 10 µM; in assay [2] it was below 10000 nM; in assay [3], below 10000 nM; in assay [4], above 10 µM.

Turning to `Nc1nc2cc(-c3ccc4ncc(-c5cnn(CCO)c5)nc4c3)ccc2o1` [Compound 108], the IC50 was above 10 µM in assay [1], below 100 nM in assay [2], below 100 nM in assay [3] and below 10 µM in assay [4].

`Nc1nc2cc(-c3ccc4ncc(S(=O)(=O)N5CCOCC5)n4c3)ccc2o1` [Compound 109]: the half-inhibitory concentration (IC50) in assay [1] was above 10 µM; in assay [2], above 10000 nM; in assay [3] it was above 10000 nM; in assay [4], above 10 µM.

Consider `CN1CCN(S(=O)(=O)c2cnc3ccc(-c4ccc5oc(N)nc5c4)cn23)CC1` [Compound 110], for which the IC50 in assay [1] is above 10 µM; in assay [2], above 10000 nM; in assay [3] it was above 10000 nM; in assay [4], above 10 µM.

Take `Nc1nc2cc(-c3ccc4ncc(C(=O)N5CCNCC5)n4c3)ccc2o1` [Compound 111]: the 50% inhibitory concentration (IC50) is above 10 µM in assay [1], below 100 nM in assay [2], above 10000 nM in assay [3] and below 10 µM in assay [4].

As to `CS(=O)(=O)N1CCN(C(=O)c2cnc3ccc(-c4ccc5oc(N)nc5c4)cn23)CC1` [Compound 112], the IC50 in assay [1] was below 10 µM; in assay [2], below 100 nM; in assay [3], below 1000 nM; in assay [4], above 10 µM.

On to `CC(=O)N1CCN(C(=O)c2cnc3ccc(-c4ccc5oc(N)nc5c4)cn23)CC1` [Compound 113], for which the IC50 in assay [1] was above 10 µM; in assay [2], below 100 nM; in assay [3], below 1000 nM; in assay [4], above 10 µM.
